Test results as given in US5093339A, “Pyrano[f]quinoline derivatives and pharmaceutical compositions containing the same” (Kodama Kabushiki Kaisha, priority 1988, dated 1992).
Where two headings read alike, the source gives them in different places.

Columns and labels:
[1] = test system: platelet plasma (platelet-rich plasma of rabbit); experiment: Platelet aggregation inhibitory action (Test Example 1), rabbit platelet plasma, aggregation by ADP, PAF, AA or collagen; assay type: cell-based
Procedure: For evaluating the platelet aggregation inhibitory action of the present compounds, platelet plasma containing 5×10^5 of platelets in 1 μl of plasma was prepared by appropriately mixing platelet-rich plasma (PRP) of rabbit with platelet-poor plasma (PPP). By using the platelet plasma, the present compounds were measured on 50% inhibitory efficacy (IC 50) against each of platelet aggregation accelerators, 10 μM of adenosine diphosphate (ADP), 0.01 μg/ml of platelet activation factor (PAF), 300 μM of arachidonic acid (AA) and 30 μg/ml of collagen.

[2] = test system: blood pressure; experiment: Blood pressure-reducing action (Test Example 2); assay type: in vivo, dog; details: dogs, i.v., dissolved in dimethylsulfoxide; for ED20: Canis lupus familiaris, iv, read-out: ED20, dose effective to reduce the blood pressure by 20%
Procedure: In order to evaluate the blood pressure-reducing action of the present compounds, each of the compounds was dissolved in dimethylsulfoxide and administered intravenously to dogs. After administration, a dose of the compound effective to reduce the blood pressure by 20% (ED20 :mg/Kg) was measured.

[3] = test system: carotid blood-flow; experiment: Blood-flow increasing action (Test Example 3), carotid; assay type: in vivo, dog; details: Canis lupus familiaris, iv; dogs, i.v., dissolved in dimethylsulfoxide; read-out: Carotid blood-flow increasing action (ED30), dose required to increase the blood-flow in the carotid by 30%
Procedure: In order to evaluate the blood-flow increasing action of the present compounds, each of the compounds was dissolved in dimethylsulfoxide and administered intravenously to dogs. After administration, a dose required to increase the blood-flow in the carotid by 30% was determined.

[4] = Acute toxicity test (Test Example 4); details: in vivo; oral administration to mouse, suspended in carboxymethyl cellulose; read-out: LD50, 50% lethal dose
Procedure: Each of the present compounds suspended in a carboxymethyl cellulose was administered orally to a mouse and a 50% lethal dose (LD50) was measured. There was not observed any dead mouse even with the administration as high as 2,000 mg/Kg.

[5] = Oryctolagus cuniculus, 0.01 μg/ml platelet activation factor (PAF), read-out: 50% inhibitory efficacy (IC 50), PAF, Coagulant (ID50)
[6] = Oryctolagus cuniculus, 10 μM adenosine diphosphate (ADP), read-out: 50% inhibitory efficacy (IC 50), ADP, Coagulant (ID50)
[7] = Oryctolagus cuniculus, 30 μg/ml collagen, read-out: 50% inhibitory efficacy (IC 50), Collagen, Coagulant (ID50)
[8] = Oryctolagus cuniculus, 300 μM arachidonic acid (AA), read-out: 50% inhibitory efficacy (IC 50), AA, Coagulant (ID50)

Row | Molecule | IC50 [1, 5] [µM] | IC50 [1, 6] [µM] | IC50 [1, 7] [µM] | IC50 [1, 8] [µM] | ED20 [2] [mg/kg] | ED30 [3] [mg/kg] | LD50 [4] [mg/kg] | IC50 ([1]; 0.01 μg/ml platelet activation factor (PAF), read-out: 50% inhibitory efficacy (IC 50), PAF, Coagulant (ID50)) [µM] | IC50 ([1]; 10 μM adenosine diphosphate (ADP), read-out: 50% inhibitory efficacy (IC 50), ADP, Coagulant (ID50)) [µM] | IC50 ([1]; 30 μg/ml collagen, read-out: 50% inhibitory efficacy (IC 50), Collagen, Coagulant (ID50)) [µM] | IC50 ([1]; 300 μM arachidonic acid (AA), read-out: 50% inhibitory efficacy (IC 50), AA, Coagulant (ID50)) [µM] | ED20, dose effective to reduce the blood pressure by 20% [2] [mg/kg]
1 | O=c1ccc2c3c(ccc2[nH]1)OCC(O)C3 (stereo not shown) [Preparation Example 6, 2-hydroxy-1,2,3,3-tetrahydro-3H-pyrano [3,2-f]quinoline-8(7H)-one] | 47 | 30 | 25 | 21 | 1.5 | 0.19 | ≥ 2000 | – | – | – | – | –
2 | O=c1ccc2c3c(ccc2[nH]1)OCCC3O (stereo not shown) [Preparation Example 8, 1-hydroxy-1,2,3,3-tetrahydro-3H-pyrano[3,2-f]quinoline-8(7H)-one] | 25 | 20 | 18 | 18 | 1.8 | – | – | – | – | – | – | –
3 | CC1CCc2c(ccc3[nH]c(=O)ccc23)O1 (stereo not shown) [Preparation Example 1, 3-methyl-1,2-dihydro-3H-pyrano[3,2-f]quinoline-8(7H)-one] | 8 | 5 | 5 | 3 | 1.2 | – | – | – | – | – | – | –
4 | CC1(C)Oc2ccc3[nH]c(=O)ccc3c2CC1O (stereo not shown) [Preparation Example 7, 3,3-dimethyl-1,2-hydroxy-1,2-dihydro-3 H-pyrano[3,2-f]quinoline-8(7H)-one] | 21 | 20 | 13 | 13 | 1.6 | – | – | – | – | – | – | –
5 | O=c1ccc2c3c(ccc2[nH]1)OCC=C3 [Preparation Example 4, 3,3-dihydro-3H-pyrano[3,2-f]quinoline-8(7H)-one] | 25 | 30 | 20 | 18 | 0.5 | 0.066 | – | – | – | – | – | –
6 | O=c1ccc2c3c(ccc2[nH]1)OCCC3 [Preparation Example 5, 1,2,3,3-tetrahydro-3H-pyrano-[3,2-f]quinoline-8(7H)-one] | 8 | 3 | 6 | 4 | 1.6 | 0.0094 | ≥ 2000 | – | – | – | – | –
7 | CC1(C)CCc2c(ccc3c2CCC(=O)N3)O1 [Preparation Example 3, 3,3-dimethyl-1,2,9,10-tetrahydro-3H-pyrano [3,2-f]quinoline-8(7H)-one] | 22 | 20 | 21 | 16 | 0.4 | 0.03 | – | – | – | – | – | –
8 | 3,3-dimethyl-1-hydroxy-3H-pyrano [3,2-f]quinoline-8(7H)-one [Preparation Example 9] | – | – | – | – | – | – | – | 45 | 30 | 30 | 21 | 1.5
9 | CC1(C)CCc2c(ccc3[nH]c(=O)ccc23)O1 [Preparation Example 2, 3,3-dimethyl-1,2-dihydro-3H-pyrano[3,2-f]quinoline-8(7H)-one] | 6 | 5 | 7 | 5 | 1.2 | 0.009 | – | – | – | – | – | –
